Results reported in US20070056361A1, “Partitioning gas tracer tests” (UNIVERSITY OF DELAWARE office of the Vice Provost for …, priority 2003, published 2007).
Where two headings read alike, the source gives them in different places. Marks after values point to notes of the source that are not given here. One block for each molecule: values may come before it.

How the values were obtained:
[1] = Henry's law constant from gas tracer tests in sand column wetted with landfill leachate; assay type: physicochemical
Description: Three trials were performed to determine KH for the leachate. The experimental procedures were modified slightly from those described above for distilled water. Here, the column was packed with dry sand, purged with nitrogen, and the leachate was flushed upward in the vertically-mounted column to displace the gas. Nitrogen was then injected into the top of the column to force the mobile water out of the column. This procedure allowed the column to be wetted with the leachate while under anaerobic conditions. Between experimental trials anaerobic conditions were maintained in the column to minimize reactions within the leachate that might alter its composition. The temperatures for the leachate tests ranged between 25.5-26.0° C.
The Henry's law constant was determined in each of the above tests using the tracer breakthrough curves and the known porosity and water saturation for the porous medium. Time moment analysis was used to determine the mean tracer velocities; Rf was computed from eq. 1; and using known n and Sw, KH was computed from eq. 3.
Three PGTT were conducted with landfill leachate to explore the influence of leachate composition on difluoromethane partitioning. The porosity and leachate saturation of the sand column were n=0.41 and Sw=0.17 respectively, while the average interstitial gas velocity used in the tracer tests was 25.2 m/day. […]

[2] = clean water, Deeds et al. 1999; cited from earlier work
[3] = measured at 25° C. (Worksafe Australia); cited from earlier work
[4] = Henry's law constant from gas tracer tests in sand column wetted with distilled water; assay type: physicochemical; settings: distilled water at 22.5-24.1° C., six trials, ± 95% confidence interval
Text: The experimental procedure used to determine KH was similar to that reported in an earlier study (Deeds, N. E.; McKinney, D. C.; Pope, G. A.; Whitely Jr., G. A. Difluoromethane as partitioning tracer to estimate vadose water saturations. Journal of Environmental Engineering 1999, 125, 630-633). A jacketed glass column 60-cm long and 5-cm in diameter (Ace Glass, Inc., Vineland, N.J.) was packed with 50/70 silica sand (d50=0.26 mm, uniformity index=1.186; U.S. Silica, Ill.) underwater using distilled water. The column was positioned vertically, and suction was applied to the bottom of the column to drain water from the porous medium. […]
A water bath and pump were used to recirculate water in the glass jacket surrounding the porous medium to maintain fluid and gas temperatures between 22.5-24.1° C. during the experiments. […] Tracer concentrations in the gas samples were quantified with a gas chromatograph (Model 8610C, SRI Instruments, Torrance, Calif.): tracers were separated using mol-sieve and silica gel packed columns and then detected with a thermal conductivity (helium) or flame ionization detector (difluoromethane). […]
The Henry's law constant was determined in each of the above tests using the tracer breakthrough curves and the known porosity and water saturation for the porous medium. […]

[5] = Henry's law constant in batch systems from 4° C. to 50° C.; assay type: physicochemical
Description: Difluoromethane was selected as the partitioning tracer, which partitions into water within the solid waste, while helium was selected as the conservative tracer. A key thermodynamic parameter necessary for interpretation of data from a PGTT is the Henry's law constant of the partitioning tracer. Laboratory tests were conducted in batch systems to determine the Henry's law constant for difluoromethane from 4° C. to 50° C., which covers the temperature range observed in our field tests. In addition, batch experiments were also conducted with filter paper wetted to different degrees to assess the ability of PGTT to measure water in small pores and sorbed to solid surfaces.

[6] = at 25° C., gas/water, cited from earlier work
[7] = for every 10° C. increase in temperature; cited from earlier work

KH (Henry's law constant) ([1]; landfill leachate (Cherry Island Landfill), 25.5-26.0° C., three trials, ± 95% confidence interval): 0.57±0.09
Increase of KH in leachate relative to distilled water ([1]; leachate vs distilled water, mean temperature about 2.5° C. higher): 20%
KH (dimensionless Henry's law constant) [4]: 0.47^b
KH (dimensionless Henry's law constant) ([4]; listed as difluoromethane): 0.47±0.07
KH (Henry's law constant) ([5]; at 4° C.): 0.34
KH (Henry's law constant) ([5]; at 50° C.): 0.99
SMILES: FCF [Difluoromethane]
KH (Henry's law constant) [2]: 0.59
Log n-Octanol/Water Partition Coefficient [3]: 0.21^c

SMILES: [He] [Helium]
KH (dimensionless Henry's law constant) [6]: 106^a
KH (dimensionless Henry's law constant) ([6]; listed as helium): ≈ 100

SMILES: CF [fluoromethane]
Increase in KH with temperature [7]: approximately 20%
